Test results: PubChem BioAssay (NCI)
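1) Cells in 96-well plates. 2) Compound, 48 h, 5 concentrations. 3) Linear interpolation between surrounding doses. 4) Unreached endpoint = highest concentration. GI50 marks 50% less growth. TGI marks complete inhibition of growth.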

Columns and labels:
Assay in all cases: NCI tumour cell line growth inhibition, 48 h
[1] = system: 786-0 renal
[2] = system: A498 renal
[3] = system: A549 NSCLC
[4] = system: ACHN renal
[5] = system: BT-549 breast
[6] = system: CAKI-1 renal
[7] = system: CCRF-CEM leukemia
[8] = system: COLO 205 colon
[9] = system: DU-145 prostate
[10] = system: EKVX NSCLC
[11] = system: HCC-2998 colon
[12] = system: HCT-116 colon
[13] = system: HCT-15 colon
[14] = system: HL-60(TB) leukemia
[15] = system: HOP-62 NSCLC
[16] = system: HOP-92 NSCLC
[17] = system: HS 578T breast
[18] = system: HT29 colon
[19] = system: IGROV1 ovarian
[20] = system: K-562 leukemia
[21] = system: KM12 colon
[22] = system: LOX IMVI melanoma
[23] = system: M14 melanoma
[24] = system: MALME-3M melanoma
[25] = system: MCF7 breast
[26] = system: MDA-MB-231 breast
[27] = system: MDA-MB-435
[28] = system: MOLT-4 leukemia
[29] = system: NCI-H226 lung
[30] = system: NCI-H23 lung
[31] = system: NCI-H460 lung
[32] = system: NCI-H522 lung
[33] = system: NCI/ADR-RES ovarian
[34] = system: OVCAR-3 ovarian
[35] = system: OVCAR-4 ovarian
[36] = system: OVCAR-5 ovarian
[37] = system: OVCAR-8 ovarian
[38] = system: PC-3 prostate
[39] = system: RPMI-8226 leukemia
[40] = system: RXF 393 renal
[41] = system: SF-268 CNS
[42] = system: SF-295 CNS
[43] = system: SF-539 CNS
[44] = system: SK-MEL-2 melanoma
[45] = system: SK-MEL-28 melanoma
[46] = system: SK-MEL-5 melanoma
[47] = system: SK-OV-3 ovarian
[48] = system: SN12C renal
[49] = system: SNB-19 CNS
[50] = system: SNB-75 CNS
[51] = system: SR leukemia
[52] = system: SW-620 colon
[53] = system: T-47D breast
[54] = system: TK-10 renal
[55] = system: U251 CNS
[56] = system: UACC-257 melanoma
[57] = system: UACC-62 melanoma
[58] = system: UO-31 renal

NC(=O)c1cc(S(=O)(=O)Nc2nnc(-c3ccccc3)c(-c3ccccc3)n2)c(SCc2ccccc2)cc1Cl
GI50 [1]: > 100 µM | TGI [1]: > 100 µM | GI50 [2]: > 88.6 µM | TGI [2]: > 100 µM | GI50 [3]: > 100 µM | TGI [3]: > 100 µM | GI50 [4]: > 100 µM | TGI [4]: > 100 µM | GI50 [5]: > 53.1 µM | TGI [5]: > 89.7 µM | GI50 [6]: > 100 µM | TGI [6]: > 100 µM | GI50 [7]: > 50.4 µM | TGI [7]: > 82.3 µM | GI50 [8]: > 100 µM | TGI [8]: > 100 µM | GI50 [9]: > 100 µM | TGI [9]: > 100 µM | GI50 [10]: > 100 µM | TGI [10]: > 100 µM | GI50 [11]: > 100 µM | TGI [11]: > 100 µM | GI50 [12]: > 100 µM | TGI [12]: > 100 µM | GI50 [13]: > 88.3 µM | TGI [13]: > 100 µM | GI50 [14]: 23.1 µM | TGI [14]: 49.6 µM | GI50 [15]: > 100 µM | TGI [15]: > 100 µM | GI50 [16]: > 100 µM | TGI [16]: > 100 µM | GI50 [17]: > 44.4 µM | TGI [17]: > 75.5 µM | TGI [18]: > 100 µM | GI50 [19]: > 54.7 µM | TGI [19]: > 94.3 µM | GI50 [20]: 54.6 µM | TGI [20]: > 100 µM | GI50 [21]: > 62.6 µM | TGI [21]: > 100 µM | GI50 [22]: > 82.3 µM | TGI [22]: > 100 µM | GI50 [23]: > 100 µM | TGI [23]: > 100 µM | GI50 [24]: > 100 µM | TGI [24]: > 100 µM | GI50 [25]: 30.2 µM | TGI [25]: > 66.4 µM | GI50 [26]: > 85.4 µM | TGI [26]: > 100 µM | GI50 [27]: > 53.4 µM | TGI [27]: > 100 µM | GI50 [28]: 38.2 µM | TGI [28]: > 70.1 µM | GI50 [29]: > 46.9 µM | TGI [29]: > 69.4 µM | GI50 [30]: > 72.3 µM | TGI [30]: > 100 µM | GI50 [31]: > 46.2 µM | TGI [31]: > 83.1 µM | GI50 [32]: > 44 µM | TGI [32]: > 68.3 µM | GI50 [33]: > 100 µM | TGI [33]: > 100 µM | GI50 [34]: > 100 µM | TGI [34]: > 100 µM | TGI [35]: > 64.6 µM | GI50 [36]: > 100 µM | TGI [36]: > 100 µM | GI50 [37]: > 50.3 µM | TGI [37]: > 77.5 µM | GI50 [38]: > 62.2 µM | TGI [38]: > 100 µM | GI50 [39]: > 44.1 µM | TGI [39]: > 65.1 µM | GI50 [40]: 75.3 µM | TGI [40]: > 100 µM | GI50 [41]: > 87.5 µM | TGI [41]: > 100 µM | GI50 [42]: > 57.7 µM | TGI [42]: > 100 µM | GI50 [43]: > 44.3 µM | TGI [43]: > 63.9 µM | GI50 [44]: > 43.1 µM | TGI [44]: > 60.7 µM | TGI [45]: > 100 µM | GI50 [46]: > 79.6 µM | TGI [46]: > 100 µM | GI50 [47]: > 74.7 µM | TGI [47]: > 100 µM | GI50 [48]: > 50.8 µM | TGI [48]: > 82.6 µM | GI50 [49]: > 100 µM | TGI [49]: > 100 µM | TGI [50]: > 61.5 µM | GI50 [51]: 42.2 µM | TGI [51]: > 70.9 µM | GI50 [52]: > 56.1 µM | TGI [52]: > 100 µM | GI50 [53]: > 100 µM | TGI [53]: > 100 µM | GI50 [54]: > 100 µM | TGI [54]: > 100 µM | GI50 [55]: > 55.6 µM | TGI [55]: > 100 µM | GI50 [56]: > 48.2 µM | TGI [56]: > 89.9 µM | GI50 [57]: 71.1 µM | TGI [57]: > 100 µM | GI50 [58]: > 100 µM | TGI [58]: > 100 µM
